This experiment has as its target T1, Siglec-7 (Homo sapiens, UniProt Q9Y286).
T1 construct: gene SIGLEC7; recombinant Siglec-7-Fc soluble protein
As to the kind of experiment: concentration-independent native mass spectrometry (COIN-CaR-ESI-MS). It is filed as binding.

The text below walks through data of article PMC12038855, “Synthesis of 4-azido sialic acid for testing against Siglec-7 and in metabolic oligosaccharide engineering” (RSC Chemical Biology, 2025).

T1 sequence (Q9Y286 19-353 limits assumed): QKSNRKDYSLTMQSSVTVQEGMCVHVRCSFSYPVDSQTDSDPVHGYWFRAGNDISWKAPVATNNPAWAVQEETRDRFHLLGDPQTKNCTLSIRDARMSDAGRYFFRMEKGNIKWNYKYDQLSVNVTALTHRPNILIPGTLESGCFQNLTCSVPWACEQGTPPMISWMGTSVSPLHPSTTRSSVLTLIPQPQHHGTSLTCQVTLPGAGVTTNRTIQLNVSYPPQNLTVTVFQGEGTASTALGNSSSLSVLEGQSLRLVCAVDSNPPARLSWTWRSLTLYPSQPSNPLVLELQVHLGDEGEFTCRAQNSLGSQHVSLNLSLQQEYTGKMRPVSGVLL

A word on the Kd: it is the concentration at which binding is half-saturated. High values mean lower affinity, low ones higher affinity. The compound `CC(=O)N[C@H]1[C@@H](OCCNC(=O)OCc2ccccc2)O[C@H](CO)[C@H](O)[C@@H]1O[C@@H]1O[C@H](CO)[C@H](O)[C@H](O[C@]2(C(=O)O)C[C@H](N=[N+]=[N-])[C@@H](NC(C)=O)[C@H]([C@H](O)[C@H](O)CO)O2)[C@H]1O` [compound 13, 2-(N-benzyloxycarbonylamino)ethyl 5-acetamido-4-azido-3,4,5 trideoxy-D-glycero-α-D-galacto-nonulopyranosyl-(2–3)-[β-D-galactopyranosyl]-(1–3)-2 acetamido-2-deoxy-α-D-galactopyranoside] gave a Kd of 115 ± 44 µM. On to `CC(=O)N[C@H]1[C@@H](OCCNC(=O)OCc2ccccc2)O[C@H](CO)[C@H](O)[C@@H]1O[C@@H]1O[C@H](CO)[C@H](O)[C@H](O[C@]2(C(=O)O)C[C@H](O)[C@@H](NC(C)=O)[C@H]([C@H](O)[C@H](O)CO)O2)[C@H]1O` [compound 14, 2-(N-benzyloxycarbonylamino)ethyl 5 acetamido-3,5-dideoxy-D-glycero-α-D-galacto-nonulopyranosyl-(2–3)-[(β-D-galactopyranosyl)]-(1–3)-2-acetamido-2-deoxy-α-D-galactopyranoside], for which the Kd came out at 88 ± 31 µM.
